Data: patent publication US9155761B2, “Method for the treatment of cancer” (UNIVERSITY COLLEGE CORK, NATIONAL UNIVERSITY OF IRELAND, …, priority 2009, dated 2015)
Entries after “also recorded” stand apart in the source; their conditions may differ.

Assays:
[1] = system: CT26 (Colorectal carcinoma cells); assay: CT26 colorectal carcinoma model, intratumoural 5-FU / Lithium Chloride; format: in vivo, mice; conditions: intratumoural thrice weekly; Lithium Chloride 200 mg/kg; 5-FU 20 mg/kg
Description: For routine tumour induction, 1×10^6 CT26 (Colorectal carcinoma cells) suspended in 200 μl of serum free DMEM were injected subcutaneously into the right flank of adult female Balb/c mice, after anaesthesia. Mice were randomly divided into experimental groups. Mice were treated at a tumour volume of approximately 60 mm^3 in volume (5-7 mm major diameter). All treatments were delivered in 50 μl volumes, administered directly into the tumour, thrice weekly with PBS (Control), Lithium Chloride (200 mg/kg), 5-FU (20 mg/kg) and a combination of both Lithium and 5-FU (200 mg/kg, 20 mg/kg). Following drug treatment, tumours were monitored by alternate day measurements in two dimensions, using Verniers Calipers. Tumor volumes were calculated according to the formula V=ab^2/6, where ‘a’ is the longest diameter of the tumor and ‘b’ is the longest diameter perpendicular to diameter ‘a’. Animals were culled when tumour volumes exceeded ˜500 mm^3 (no greater than 15 mm in diameter). […] Treatment of these animals was maintained until day 58, following which all treatments ceased.

[2] = system: active caspase-3 in KYSE450 cells; assay: Active caspase-3 by flow cytometry; format: cell-based, human; conditions: 48 hours after treatment, range of concentrations
Description: (§1) To examine control and 5-Fluorouracil treated cells for evidence of caspase activity cells were processed by trypsinization, 48 hours after treatment. […] This was detected with an anti rabbit FITC conjugated secondary antibody, and samples were analyzed by FACScan at 530 nm (FL-1). Percentages indicate the proportion of cells with active caspase-3, detected as an increase in the number of FITC (FL-1) labelled cells.

[3] = system: active caspase-3 in OE33 cells; assay: Active caspase-3 by flow cytometry; format: cell-based, human; conditions: 48 hours after treatment
Description: as §1

[4] = system: active caspase-3 in OE19 cells; assay: Active caspase-3 by flow cytometry; format: cell-based, human; conditions: 48 hours after treatment
Description: as §1

[5] = system: active caspase-3 in OE21 cells; assay: Active caspase-3 by flow cytometry; format: cell-based, human
Description: as §1

[6] = system: OE33; assay: Mitochondrial depolarization, JC-1 probe; format: cell-based, human; conditions: 48 hour treatment
Description: (§2) Mitochondrial membrane potential was determined using the JC-1 probe (Molecular Probes). In non-apoptotic cells, JC1 accumulates as aggregates in the mitochondria, which stain red (FL2; 590 nm). At the onset of apoptosis, a loss of mitochondrial membrane potential (ΔΨm) releases the aggregated JC1, returning it to its monomeric form, which stains the cytosol green (FL1; 530 nm). Therefore, fluorescence of the JC-1 probe in the FL-2 channel decreases as mitochondrial membrane integrity is lost, while the fluorescence in FL-1 channel increases. Cells were incubated in JC1 (7.5 μg/ml) at 37° C. for 15 mins, and washed prior to analysis by flow cytometry (FACScan, Becton Dickinson). Percentages denote the proportion of cells with depolarised mitochondria following 48 hour incubation with 5-Fluorouracil and represent at least three independent experiments.

[7] = system: OE21; assay: Mitochondrial depolarization, JC-1 probe; format: cell-based, human; conditions: 48 hour treatment
Description: as §2

[8] = system: KYSE450; assay: Mitochondrial depolarization, JC-1 probe; format: cell-based, human; conditions: 48 hour treatment
Description: as §2

[9] = system: OE19; assay: Mitochondrial depolarization, JC-1 probe; format: cell-based, human; conditions: 48 hour treatment
Description: as §2

[10] = system: OE21
Description: (§3) Morphological features of cells treated with 5-fluorouracil (5-FU)/cisplatin, without and with 3-MA, LY294002, Bafilomycin, Lithium chloride, rapamycin or HA14-I were examined by light microscopy. Morphologies of treated cells were examined 24 and 48 hours post treatment, treatment times are referred to in figure legends. Aliquots of vehicle control and drug treated cells were cytospun onto glass slides and stained with Rapi-Diff (Braidwood laboratories, UK). The extent of apoptotic and non-apoptotic cell death was determined by counting the cells in at least three fields of view per slide, with an average of ˜100 cells per field. Apoptotic cell death is characterized by the presence of two or more of the following morphological features: cell shrinkage, chromatin condensation, DNA degradation and fragmentation into ‘apoptotic bodies’, within an intact plasma membrane. Autophagic cell death was identified by clear elevation of cytoplasmic vesicles, loss of cytoplasmic material, pyknosis of the nuclear material and an intact nuclear membrane. Cytospin images are representative of at least three independent experiments.

[11] = system: OE33; assay: Monodansylcadaverine (MDC)-labelled vacuoles; format: cell-based, human; conditions: 25 μM
Description: (§4) MDC is an autofluorescent weak base that accumulates in acidic lysosomal vacuoles, showing high selectivity for autophagosomes, due to the high level of unhydrolyzed membrane lipids from engulfed organelles, which enhance MDC fluorescence. Cells were incubated with 0.1 mM MDC in PBS at 37° C. for 10 minutes (Biederbick et al., 1995), washed and immediately analyzed by fluorescent microscopy.

[12] = system: OE21; assay: Monodansylcadaverine (MDC)-labelled vacuoles; format: cell-based, human; conditions: 25 μM
Description: as §4

[13] = system: KYSE450; assay: Monodansylcadaverine (MDC)-labelled vacuoles; format: cell-based, human; conditions: 25 μM
Description: as §4

[14] = system: OE19; assay: Monodansylcadaverine (MDC)-labelled vacuoles; format: cell-based, human; conditions: 25 μM
Description: as §4

[15] = system: CT26 (Colorectal carcinoma cells); assay: CT26 colorectal carcinoma model, intratumoural Rapamycin / 5-FU; format: in vivo, mice; conditions: intratumoural thrice weekly; Rapamycin 0.6-2 mg/kg; 5-FU 20 mg/kg
Description: For routine tumour induction, 1×10^6 CT26 (Colorectal carcinoma cells) suspended in 200 μl of serum free DMEM are injected subcutaneously into the right flank of adult female Balb/c mice, after anaesthesia. Mice are randomly divided into experimental groups. Mice are treated at a tumour volume of approximately 60 mm^3 in volume (5-7 mm major diameter). […] Following drug treatment, tumours are monitored by alternate day measurements in two dimensions, using Verniers Calipers. Tumor volumes are calculated according to the formula V=ab^2/6, where ‘a’ is the longest diameter of the tumor and ‘b’ is the longest diameter perpendicular to diameter ‘a’. Animals are culled when tumour volumes exceed ˜500 mm^3 (no greater than 15 mm in diameter). […] Treatment of these animals is maintained until day 58, following which all treatments cease.

[16] = system: OE21; assay: Electron microscopy; format: cell-based, human; conditions: 5-FU (25 μM), 48 hours
Description: (§5) Cells were seeded on semi-porous membranes and incubated in 5-Fluoruracil (5-FU) for 48 hours. Cells were then fixed in a […] phosphate buffer (pH 7.4), containing 2.0% glutaraldehyde, at room temperature (RT) for 40 minutes. Cells were post-fixed in Osmium tetroxide (OsO4) at RT for 60 minutes, dehydrated in ascending grades of ethanol solutions (50%, 70%, 95%, 100% and 100% dry), prior to embedding in Araldite resin. Samples were subjected to a graded infiltration process with araldite (epoxy resin) before being set and sectioned. Representative areas were chosen for ultra-thin sectioning and samples were examined by electron microscopy.

[17] = system: OE19; assay: Electron microscopy; format: cell-based, human; conditions: 5-FU (25 μM), 48 hours
Description: as §5

[18] = system: OE33; assay: Evaluation of cell death morphology by light microscopy; format: cell-based, human; conditions: 5-FU (50 μM) or cisplatin (40 μM), 48 hours
Description: as §3

[19] = system: KYSE450; assay: as above; format: cell-based, human
Description: as §3

[20] = system: OE19; assay: as above; format: cell-based, human; conditions: 5-FU (50 μM) or cisplatin (40 μM), 48 hours
Description: as §3

[21] = 5-FU (50 μM) or cisplatin (40 μM), 48 hours

## O=c1[nH]cc(F)c(=O)[nH]1 [5-FU, 5-fluorouracil]
[1]
  survival: day beyond which no animal of the group was alive / final animal euthanized: 33 days
[2]
  active caspase-3: do not show caspase-3 activity; also recorded: fail to show any active caspase-3
[3]
  active caspase-3: displayed active caspase-3
[4]
  active caspase-3: do not show caspase-3 activity
[5]; 5-FU (25 μM/50 μM), 48 hours
  proportion of cells with active caspase-3: 44%
[5]; 48 hours after treatment
  active caspase-3: displayed active caspase-3
[6]
  mitochondrial depolarization (JC-1): mitochondrial depolarization
[7]
  mitochondrial depolarization (JC-1): significant mitochondrial depolarization
[8]
  mitochondrial depolarization (JC-1): do not show caspase-3 activity or mitochondrial membrane depolarization; also recorded: do not exhibit membrane depolarization
[9]
  mitochondrial depolarization (JC-1): do not show caspase-3 activity or mitochondrial membrane depolarization
[10]; [21]
  cell death morphology: predominantly apoptotic cell death morphology
[10]; 5-FU treated OE21 cells (FIG. 1c)
  autophagic cells as a minor population: 7%
[11]
  MDC staining pattern: MDC staining patterns are diffuse
[12]
  MDC staining pattern: MDC staining patterns are diffuse
[13]
  MDC staining pattern: accumulation of MDC (bright blue punctate staining) throughout the cytoplasm
[14]
  MDC staining pattern: accumulation of MDC (bright blue punctate staining) throughout the cytoplasm
[15]
  survival: day beyond which no animal of the group is alive / final animal euthanized: 33 days
[16]
  ultra structural features (electron microscopy): morphological changes consistent with classical apoptotic cell death
[17]
  ultra structural features (electron microscopy): numerous cytoplasmic vacuoles are evident
[18]
  cell death morphology: predominantly apoptotic cell death morphology
[19]; [21]
  cell death morphology: predominantly non-apoptotic morphology
[19]; HA14-1 (5 μM) and/or 5-FU (50 μM), 24 hours
  morphology: causes autophagic phenotype
[20]
  cell death morphology: predominantly non-apoptotic morphology
